According to patent publication US20060258003A1, “Culture medium composition, culture method, and myoblasts obtained, and their uses” (CELOGOS, priority 2002, published 2006):

How the values were obtained:
[1] = compared with other statins; cited from earlier work
[2] = system: human muscle cells; assay: Toxicity of commercial statins on human muscle cells; format: cell-based; conditions: 0-1 μM; FIG. 4; total culture time 5 days
Experimental: These experiments were reproduced with human muscle cells in order to test the toxicity of the commercial statins.
The experimentation procedure is as follows.
On day 1 the media are changed. On day 3 staining is carried out.
The total culture time is 5 days.
After aspiration of the culture medium, the cells are washed with PBS then fixed with 100% ethanol. 10 minutes later the cells are washed with water then stained with a solution of 10% Giemsa for 10 minutes. The final step is washing with water.
Images of the cells are obtained with an inverted microscope (Nikon) equipped with a digital camera and a motorized stage.

[3] = system: human muscle cells; assay: Effect of Hepes buffer on long-term growth of human muscle cells; format: cell-based; conditions: 15 mM in culture medium
[4] = system: rat adipocyte cells; assay: Cell test predictive of muscle toxicity, rat adipocyte cells; conditions: 0.5 μM; 2 days culture

## COCc1c(C(C)C)nc(C(C)C)c(/C=C/[C@@H](O)C[C@@H](O)CC(=O)O)c1-c1ccc(F)cc1 [Cerivastatin]
[1]
  toxicity in human clinical use: most toxic statin
[2]
  toxicity on human muscle cells: high toxicity

## O=S(=O)(O)CCN1CCN(CCO)CC1 [Hepes]
[3]
  growth of human muscle cells in the long term: inhibits the growth

## CC[C@H](C)C(=O)O[C@H]1C[C@@H](C)C=C2C=C[C@H](C)[C@H](CC[C@@H]3C[C@@H](O)CC(=O)O3)[C@H]21 [Lovastatin]
[4]
  sensitivity of adipocyte cells: insensitive
